Reference: patent US20100113460A1, “Organic Compounds” (Givaudan SA, priority 2007, published 2010)
pIC50: −log10 of the molar value.

target: T1, CYP2A13 (Homo sapiens, UniProt Q16696); experiment: CYP2A13 inhibition, coumarin to 7-hydroxy-coumarin (Umbelliferone) fluorescence assay in microsomes; conditions: not given
T1 sequence (Q16696 1-494): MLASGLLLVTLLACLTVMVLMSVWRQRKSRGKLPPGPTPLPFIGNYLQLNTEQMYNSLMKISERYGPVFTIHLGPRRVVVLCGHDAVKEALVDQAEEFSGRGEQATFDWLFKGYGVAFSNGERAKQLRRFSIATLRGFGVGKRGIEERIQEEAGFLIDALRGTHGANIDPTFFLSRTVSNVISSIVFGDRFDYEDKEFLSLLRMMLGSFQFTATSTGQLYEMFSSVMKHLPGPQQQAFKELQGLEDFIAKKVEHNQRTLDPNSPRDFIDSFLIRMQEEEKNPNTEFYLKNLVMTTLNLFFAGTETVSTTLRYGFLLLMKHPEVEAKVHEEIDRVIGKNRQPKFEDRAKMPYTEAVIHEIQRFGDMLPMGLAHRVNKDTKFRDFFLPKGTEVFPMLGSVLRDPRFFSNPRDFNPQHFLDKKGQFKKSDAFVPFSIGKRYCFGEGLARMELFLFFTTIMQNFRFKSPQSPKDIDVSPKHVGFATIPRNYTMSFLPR

| SMILES | pIC50 |
| --- | --- |
| CCCCCN1C(=O)CC[C@H]1C(=O)OCC [Compound ID 19] | 5.52 |
| CC/C=C\CCOC(=O)C1CCCC1=O (stereo not drawn) [Compound ID 61] | 4.90 |
| c1nc2c(o1)CCCCCC2 [Compound ID 60, 4,5,6,7,8,9-hexahydrocycloocta[d]oxazole] | 4.94 |
| CCC=CCCC1(C)CCC(=O)O1 (mixture of isomers) [Compound ID 62, (E/Z)-5-(hex-3-enyl)-5-methyldihydrofuran-2(3H)-one] | 4.90 |
| CCCCCC1=C(C)CCC1=O [Compound ID 7, 2-pentyl-3-methylcyclopent-2-enone] | 5.92 |
| O=C1CCCCCCCCCCN1 [Compound ID 65, azacyclododecan-2-one] | 4.81 |
| CCC1CCC2(CCC(=O)O2)CC1 (stereo not drawn) [Compound ID 29, 8-ethyl-1-oxaspiro[4.5]decan-2-one] | 5.37 |
| CCCCCCC1(C)CCC(=O)O1 (stereo not drawn) [Compound ID 31, 5-hexyl-5-methyldihydrofuran-2(3H)-one] | 5.34 |
| c1nc2c(o1)CCCCCCCCC2 [Compound ID 14, 5,6,7,8,9,10,11,12-octahydro-4H-cycloundeca[d]oxazole] | 5.70 |
| c1nnc2n1CCCCCCCCCCC2 [Compound ID 43, 6,7,8,9,10,11,12,13,14,15-decahydro-5H-[1,2,4]triazolo[4,3-a][1]azacyclotridecine] | 5.20 |
| CCCCCCN1C(=O)CCC1C (stereo not drawn) [Compound ID 48] | 5.13 |
| CC/C=C\CC1C(=O)CCC1C (stereo not drawn) [Compound ID 17] | 5.55 |
| CC/C=C\Cn1ccnc1 [Compound ID 54, (Z)-1-(pent-2-enyl)-1H-imidazole] | 5.03 |
| N#CCCCCn1ccnc1 [Compound ID 55, 5-(1H-imidazol-1-yl)pentanenitrile] | 5.02 |
| c1nc2c([nH]1)CCCCCCCCCC2 [Compound ID 59, 4,5,6,7,8,9,10,11,12,13-decahydro-1H-cyclododeca[d]imidazole] | 4.94 |
| CCCCC/C=C/CC1CCCC1=O (stereo not drawn) [Compound ID 18, (E)-2-(oct-2-enyl)cyclopentanone] | 5.55 |
| c1cn2c(n1)CCCCCCCCCC2 [Compound ID 53, 5,6,7,8,9,10,11,12,13,14-decahydroimidazo[1,2-a][1]azacyclododecine] | 5.07 |
| CCCCCCC1CCC(=O)O1 (stereo not drawn) [Compound ID 47, 5-hexyldihydrofuran-2(3H)-one] | 5.14 |
| O=C1CCC2CCCCC2O1 (stereo not drawn) [Compound ID 45, octahydrocoumarin] | 5.18 |

Continued, values first:

| pIC50 | SMILES |
| --- | --- |
| 4.84 | c1cn2c(n1)CCCCCCCCCCC2 [Compound ID 64, 6,7,8,9,10,11,12,13,14,15-decahydro-5H-imidazo[1,2-a][1]azacyclotridecine] |
| 5.32 | CCCCCC1C(=O)CCC1C (stereo not drawn) [Compound ID 32, 3-methyl-2-pentylcyclopentanone] |
| 5.43 | c1ncc2c(n1)CCCCCCCC2 [Compound ID 26, 5,6,7,8,9,10,11,12-octahydrocyclodeca[d]pyrimidine] |
| 5.46 | c1cnc2c(c1)CCCCCCCCCC2 [Compound ID 24, 5,6,7,8,9,10,11,12,13,14-decahydrocyclododeca[b]pyridine] |
| 5.08 | CC/C=C/CC1=C(CC(=O)OC)CCC1=O [Compound ID 52] |
| 5.85 | CCCCCC12CC1(C)CCC2=O (stereo not drawn) [Compound ID 8] |
| 5.80 | CC/C=C\CC1=C(C)CCC1=O [Compound ID 10, (Z)-3-methyl-2-(pent-2-enyl)cyclopent-2-enone] |
| 5.28 | O=C1CCCCCCCCCCCN1 [Compound ID 36, azacyclotridecan-2-one] |
| 4.79 | OCCCCn1ccnc1 [Compound ID 68, 4-(1H-imidazol-1-yl)butan-1-ol] |
| 5.08 | CCCCCC1=CCCC1=O [Compound ID 51, 2-pentylcyclopent-2-enone] |
| 4.82 | CCCCC1CCC(=O)O1 (stereo not drawn) [Compound ID 63, 5-butyldihydrofuran-2(3H)-one] |
| 5.38 | CCCCCn1ccnc1 [Compound ID 28, 1-pentyl-1H-imidazole] |
| 5.11 | CCCCCC1C(=O)C(C)CC1C(=O)OC (stereo not drawn) [Compound ID 50, Methyl 4-methyl-3-oxo-2-pentylcyclopentanecarboxylate] |
| 5.38 | CCCCCCC1CCCC1=O (stereo not drawn) [Compound ID 27, 2-hexylcyclopentanone] |
| 5.48 | CC/C=C\CC1CCCC(=O)O1 (stereo not drawn) [Compound ID 22, (Z)-6-(pent-2-enyl)tetrahydro-2H-pyran-2-one] |
| 6.40 | CCCCCCC1=C(C)CCC1=O [Compound ID 3, 2-hexyl-3-methylcyclopent-2-enone] |
| 5.28 | CCCCCC1C(=O)CCC1CC(=O)OC (stereo not drawn) [Compound ID 37, methyl 2-(3-oxo-2-pentylcyclopentyl)acetate] |
| 4.75 | CC1CCC2(CCC(=O)O2)CC1 (stereo not drawn) [Compound ID 69, 8-methyl-1-oxaspiro[4.5]decan-2-one] |
| 5.30 | c1nc2c([nH]1)CCCCCCCCC2 [Compound ID 35, 1,4,5,6,7,8,9,10,11,12-decahydrocycloundeca[d]imidazole] |
| 5.35 | CCCCCCC1=CCCC1=O [Compound ID 30, 2-hexylcyclopent-2-enone] |
| 5.77 | CCCCCC1OC(=O)CC1C (stereo not drawn) [Compound ID 12, 4-methyl-5-pentyldihydrofuran-2(3H)-one] |
| 5.11 | CCOC(=O)CCCn1ccnc1 [Compound ID 49, ethyl 4-(1H-imidazol-1-yl)butanoate] |
| 5.21 | c1cnc2c(n1)CCCCCCCCCC2 [Compound ID 42, 5,6,7,8,9,10,11,12,13,14-decahydrocyclododeca[b]pyrazine] |
| 5.46 | CC/C=C\C[C@@H]1C(=O)CC[C@@H]1CC(=O)OC [Compound ID 25, (Z)-methyl 2-(3-oxo-2-(pent-2-enyl)cyclopentyl)acetate] |
| 5.80 | CCCCC1OC(=O)CC1C (stereo not drawn) [Compound ID 11, 4-methyl-5-butyldihydrofuran-2(3H)-one] |

same assay, conditions: read-out: CYP2A13 inhibitor activity IC50; substrate coumarin 0.006 mM, 60 min at 37° C.

| pIC50 | SMILES |
| --- | --- |
| 5.25 | CC(C)CCn1ccnc1 [Compound ID 39, 1-isopentyl-1H-imidazole] |
| 5.17 | CC/C=C/CCn1ccnc1 [Compound ID 46, (E)-1-(hex-3-enyl)-1H-imidazole] |
| 5.24 | CC(C)=CCn1ccnc1 [Compound ID 40, 1-(3-methylbut-2-enyl)-1H-imidazole] |
| 5.68 | CCCCCCn1ccnc1 [Compound ID 16, 1-hexyl-1H-imidazole] |

target: T2, Human CYP2B6 (Homo sapiens, UniProt P20813); experiment: Inhibition of human CYP2B6, 7-ethoxy-4-trifluoromethyl-coumarin fluorescence assay in microsomes; type: biochemical; conditions: substrate 7-ethoxy-4-trifluoromethyl-coumarin 6 μM, 40 min at 37° C.; read-out: CYP2B6 inhibitor activity IC50
T2 construct: made in house; host or cells: Sf9 insect cells, recombinant baculoviruses (coexpression)
T2 sequence (P20813 1-491): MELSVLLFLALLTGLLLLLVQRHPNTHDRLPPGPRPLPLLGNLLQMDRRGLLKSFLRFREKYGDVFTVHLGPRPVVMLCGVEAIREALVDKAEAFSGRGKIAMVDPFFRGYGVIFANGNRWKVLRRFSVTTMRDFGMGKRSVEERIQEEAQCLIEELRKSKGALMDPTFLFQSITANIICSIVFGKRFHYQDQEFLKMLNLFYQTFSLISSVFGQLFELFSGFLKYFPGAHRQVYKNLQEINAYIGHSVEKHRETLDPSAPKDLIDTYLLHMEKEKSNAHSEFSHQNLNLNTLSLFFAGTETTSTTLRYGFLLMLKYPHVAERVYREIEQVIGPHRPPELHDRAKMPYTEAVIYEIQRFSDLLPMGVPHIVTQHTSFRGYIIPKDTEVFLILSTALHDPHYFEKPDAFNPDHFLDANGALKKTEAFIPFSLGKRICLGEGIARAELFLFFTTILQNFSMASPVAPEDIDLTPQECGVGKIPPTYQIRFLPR
Experimental: Test compounds that inhibit the activity of CYP2B6 are identified by using the same principle as described in Example 28, first paragraph.
A test compound (details see Table 3) was incubated with CYP2B6 in the presence of a cytochrome P450 reductase. CYP2B6 and P450 reductase are produced using recombinant baculoviruses and co-expressing the two proteins in Sf9 insect cells as described in Example 28. Alternatively, microsomes containing CYP2B6 and the reductase are commercially available (BD Biosciences Gentest, USA). Microsomes were used which contained 1.5 pmoles CYP2B6. Potassium phosphate buffer final concentration was 100 mM, (1M stock, pH 7.4). […] The concentration of the standard substrate 7-ethoxy-4-trifluoromethyl-coumarin was 6 μM. […] The samples were incubated for 40 min at 37° C.

| pIC50 | SMILES |
| --- | --- |
| 6.22 | CCCCCCn1ccnc1 [Compound ID 16, 1-hexyl-1H-imidazole] |

target: T3, CYP2A6 (Homo sapiens, UniProt P11509); experiment: CYP2A6 inhibition, coumarin to Umbelliferone fluorescence assay in microsomes; type: biochemical; conditions: substrate coumarin 0.003 mM, 60 min at 37° C.; read-out: CYP2A6 inhibitor activity IC50
T3 construct: purchased BD Biosciences Gentest, USA
T3 sequence (P11509 1-494): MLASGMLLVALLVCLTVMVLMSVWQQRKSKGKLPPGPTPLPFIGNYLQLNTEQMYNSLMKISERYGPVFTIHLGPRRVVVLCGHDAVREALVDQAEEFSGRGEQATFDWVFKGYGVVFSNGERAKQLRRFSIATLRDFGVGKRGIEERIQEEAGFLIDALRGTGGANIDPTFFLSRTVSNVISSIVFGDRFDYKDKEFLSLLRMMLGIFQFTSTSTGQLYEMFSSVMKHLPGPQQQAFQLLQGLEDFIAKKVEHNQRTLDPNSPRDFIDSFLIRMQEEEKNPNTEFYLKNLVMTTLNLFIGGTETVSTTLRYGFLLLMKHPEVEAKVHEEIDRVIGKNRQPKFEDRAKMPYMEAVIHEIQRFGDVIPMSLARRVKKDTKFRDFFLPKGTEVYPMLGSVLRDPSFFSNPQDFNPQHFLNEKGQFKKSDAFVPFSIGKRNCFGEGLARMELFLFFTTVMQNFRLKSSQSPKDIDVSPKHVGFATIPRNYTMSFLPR
Experimental: Test compounds that inhibit the activity of CYP2A6 are identified by using the same principle as described in Example 28, first paragraph.
A test compound (details see list below) was incubated with CYP2A6 in the presence of a cytochrome P450 reductase. CYP2A6 and P450 reductase were employed in form of microsomes (BD Biosciences Gentest, USA). Microsomes were used which contained 2 pmoles CYP2A6 and an amount of NADPH-P450 reductase corresponding to cytochrome c reductase activity of 87 nmole/(min×mg protein). […] The concentration of the standard substrate coumarin was 0.003 mM.
The samples were analysed spectrofluorometrically according to the procedure described in Example 28.

| pIC50 | SMILES |
| --- | --- |
| 4.27 | CC/C=C\CC1=C(C)CCC1=O [Compound ID 10, (Z)-3-methyl-2-(pent-2-enyl)cyclopent-2-enone] |
| 5.70 | CCCCCn1ccnc1 [Compound ID 28, 1-pentyl-1H-imidazole] |
| 4.89 | CCCCCCC1=C(C)CCC1=O [Compound ID 3, 2-hexyl-3-methylcyclopent-2-enone] |
| 5.15 | CC/C=C\Cn1ccnc1 [Compound ID 54, (Z)-1-(pent-2-enyl)-1H-imidazole] |
| 4.25 | CCCCC1OC(=O)CC1C (stereo not drawn) [Compound ID 11, 4-methyl-5-butyldihydrofuran-2(3H)-one] |
